Reference: article PMC6017366, “Characterization of Two VAO-Type Flavoprotein Oxidases from Myceliophthora thermophila” (Molecules : A Journal of Synthetic Chemistry and Natural …, 2018)

How the values were obtained:
MtVAO615 = target: T1, MtVAO615 (Thermothelomyces thermophilus, UniProt G2QDQ9); test: X-ray crystal structure ([…] and […] Å); type: binding; conditions: covalent; bicovalent 6-S-cysteinyl (Cys222) and 8alpha-N1-histidyl (His157) FAD; crystals at pH 7.5 and pH 5.0
T1 construct: gene MYCTH_2305637; mature secreted protein, signal peptide (first 26 residues) removed; homologous expression in M. thermophila C1; N-glycosylated; bicovalent FAD (His157, Cys222); predicted 60 kDa, about 70 kDa on SDS-PAGE
T1 sequence (G2QDQ9 27-574): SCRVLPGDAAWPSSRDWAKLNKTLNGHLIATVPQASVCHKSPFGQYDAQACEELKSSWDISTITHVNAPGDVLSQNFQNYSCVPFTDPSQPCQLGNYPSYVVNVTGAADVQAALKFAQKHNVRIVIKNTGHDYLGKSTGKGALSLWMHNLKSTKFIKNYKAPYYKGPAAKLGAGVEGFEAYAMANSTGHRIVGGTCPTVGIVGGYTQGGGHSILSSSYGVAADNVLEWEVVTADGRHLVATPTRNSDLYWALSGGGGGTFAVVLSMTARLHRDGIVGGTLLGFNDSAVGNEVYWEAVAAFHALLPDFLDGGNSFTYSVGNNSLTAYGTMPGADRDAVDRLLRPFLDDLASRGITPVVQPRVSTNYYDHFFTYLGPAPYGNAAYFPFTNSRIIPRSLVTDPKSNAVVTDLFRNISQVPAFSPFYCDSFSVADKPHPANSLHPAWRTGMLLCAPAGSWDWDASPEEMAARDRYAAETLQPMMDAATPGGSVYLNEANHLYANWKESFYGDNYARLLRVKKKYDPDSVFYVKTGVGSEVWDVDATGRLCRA

MtVAO713 = target: T2, MtVAO713 (Thermothelomyces thermophilus, UniProt G2QMS8); test: GC/MS of conversion to 12-ketooleic acid; type: biochemical; conditions: 5 mM ricinoleic acid, 8 µM enzyme, 16 h; oxygen as electron acceptor; 50 mM Tris/Cl pH 8.0, 10% DMSO, 30 or 37 °C; very poor substrate
T2 construct: gene MYCTH_2309690; mature secreted protein, signal peptide (first 26 residues) removed; homologous expression in M. thermophila C1; monocovalent FAD (His159); N-glycosylated at Asn103 and Asn131; about 60 kDa on SDS-PAGE, 53 kDa by gel filtration
T2 sequence (G2QMS8 entry or part of it): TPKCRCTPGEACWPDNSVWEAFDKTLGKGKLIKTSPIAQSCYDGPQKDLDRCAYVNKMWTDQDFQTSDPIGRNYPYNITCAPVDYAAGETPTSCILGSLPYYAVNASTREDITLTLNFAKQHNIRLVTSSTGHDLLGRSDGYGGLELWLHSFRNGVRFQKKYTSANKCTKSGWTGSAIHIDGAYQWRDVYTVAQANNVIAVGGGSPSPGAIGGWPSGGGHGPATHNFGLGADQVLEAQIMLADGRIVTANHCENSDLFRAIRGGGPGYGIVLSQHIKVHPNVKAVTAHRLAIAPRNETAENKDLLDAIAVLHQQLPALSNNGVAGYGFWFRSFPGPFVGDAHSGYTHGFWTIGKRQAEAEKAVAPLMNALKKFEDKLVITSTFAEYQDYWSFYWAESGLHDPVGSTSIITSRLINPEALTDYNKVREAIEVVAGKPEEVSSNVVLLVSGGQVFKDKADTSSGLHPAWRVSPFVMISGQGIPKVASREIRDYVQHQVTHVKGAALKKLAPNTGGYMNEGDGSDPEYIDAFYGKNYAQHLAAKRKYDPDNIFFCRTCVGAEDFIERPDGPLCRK

| Structure (SMILES) | X-ray crystal structure (2.0 and 2.2 Å) (MtVAO615) | GC/MS of conversion to 12-ketooleic acid (MtVAO713) |
| --- | --- | --- |
| Cc1cc2nc3c(=O)[nH]c(=O)nc-3n(C[C@H](O)[C@H](O)[C@H](O)COP(=O)(O)OP(=O)(O)OC[C@H]3O[C@@H](n4cnc5c(N)ncnc54)[C@H](O)[C@@H]3O)c2cc1C [FAD] | MtVAO615 harbors a bicovalently linked 6-S-cysteinyl-8α-N1-histidyl FAD | – |
| CCCCCC[C@@H](O)C/C=C\CCCCCCCC(=O)O [ricinoleic acid] | – | The conversion of ricinoleic acid by MtVAO713 was confirmed by GC/MS analysis |
